In brackets after ≈: the same amount, converted by molar mass. Like-named read-outs stand apart in the source and are kept apart here.
What was measured:
HSV-1 (F) = assay: Antiviral activity, virus-induced cytopathogenicity in E6SM cell cultures; assay type: cell-based; conditions: for IC50: Human alphaherpesvirus 1, read-out: Activity: minimum inhibitory concentration required to reduce virus-induced cytopathogenicity by 50% (IC50), E6SM cell cultures; for Selectivity index: E6SM
Method: (§1) The anti-herpesvirus activity of D-cyclohexene G and L-cyclohexene G and the respective adenine analogues was determined in human embryonic skin muscle fibroblast (E6SM: HSV-1, HSV-2) and in human embryonic lung (HEL) cells [varicella-zoster virus (VZV), cytomegalovirus (CMV)] (Table I).

HSV-1 (KOS) = assay: as above; assay type: cell-based; conditions: for IC50: Human alphaherpesvirus 1, read-out: Activity: minimum inhibitory concentration required to reduce virus-induced cytopathogenicity by 50% (IC50), E6SM cell cultures; for Selectivity index: E6SM
Method: as §1

HSV-1 (McIntyre) = assay: as above; assay type: cell-based; conditions: for IC50: Human alphaherpesvirus 1, read-out: Activity: minimum inhibitory concentration required to reduce virus-induced cytopathogenicity by 50% (IC50), E6SM cell cultures; for Selectivity index: E6SM
Method: as §1

HSV-1 (TK−/TKf VMW1837) = assay: as above; assay type: cell-based; conditions: for IC50: Human alphaherpesvirus 1, E6SM, read-out: Activity: minimum inhibitory concentration required to reduce virus-induced cytopathogenicity by 50% (IC50); for Selectivity index: HSV-1 (TK−/TKf VMW1837), E6SM
Method: as §1

HSV-1 (TK−KOS ACVf) = assay: as above; assay type: cell-based; conditions: for IC50: Human alphaherpesvirus 1, E6SM, read-out: Activity: minimum inhibitory concentration required to reduce virus-induced cytopathogenicity by 50% (IC50); for Selectivity index: HSV-1 (TK−KOS ACVf), E6SM
Method: as §1

HSV-2 (196) = assay: as above; assay type: cell-based; conditions: for IC50: Human alphaherpesvirus 2, read-out: Activity: minimum inhibitory concentration required to reduce virus-induced cytopathogenicity by 50% (IC50), E6SM cell cultures; for Selectivity index: E6SM
Method: as §1

HSV-2 (G) = assay: as above; assay type: cell-based; conditions: for IC50: Human alphaherpesvirus 2, read-out: Activity: minimum inhibitory concentration required to reduce virus-induced cytopathogenicity by 50% (IC50), E6SM cell cultures; for Selectivity index: E6SM
Method: as §1

HSV-2 (Lyons) = assay: as above; assay type: cell-based; conditions: for IC50: Human alphaherpesvirus 2, read-out: Activity: minimum inhibitory concentration required to reduce virus-induced cytopathogenicity by 50% (IC50), E6SM cell cultures; for Selectivity index: E6SM
Method: as §1

VZV (YS) = assay: Antiviral activity, virus plaque formation in HEL cells; assay type: cell-based, varicella-zoster virus; conditions: for Selectivity index: HEL
Method: as §1

VZV (OKA) = assay: microbe, parasite or virus in culture; assay type: cell-based, varicella-zoster virus; conditions: for IC50: Human alphaherpesvirus 3, HEL, read-out: Activity: inhibitory concentration required to reduce virus plaque formation by 50% (IC50); for Selectivity index: VZV (OKA), HEL
Method: as §1

VZV (TK−07/1) = assay: microbe, parasite or virus in culture; assay type: cell-based, varicella-zoster virus; conditions: for IC50: Human alphaherpesvirus 3, HEL, read-out: Activity: inhibitory concentration required to reduce virus plaque formation by 50% (IC50); for Selectivity index: VZV (TK−07/1), HEL
Method: as §1

VZV (TK−YS/R) = assay: microbe, parasite or virus in culture; assay type: cell-based, varicella-zoster virus; conditions: for IC50: Human alphaherpesvirus 3, HEL, read-out: Activity: inhibitory concentration required to reduce virus plaque formation by 50% (IC50); for Selectivity index: VZV (TK−YS/R), HEL
Method: as §1

HeLa = assay: Cytotoxicity, alteration of cell morphology; assay type: cell-based
Vero = assay: Cytotoxicity, alteration of cell morphology; assay type: cell-based
[1] = Cytotoxicity, alteration of cell morphology
Method: as §1

HEL [2] = assay: Cytotoxicity, HEL (footnote c not given); conditions: HEL (footnote c, not defined)
Method: as §1

HEL [3] = assay: Cytotoxicity, cell growth; conditions: HEL (footnote b)
CMV (AD 169) = assay: Antiviral activity, virus plaque formation in HEL cells; assay type: cell-based, cytomegalovirus; conditions: for IC50: Human betaherpesvirus 5, read-out: Activity: inhibitory concentration required to reduce virus plaque formation by 50% (IC50), HEL cells, virus input 20 PFU; for Selectivity index: HEL
Method: as §1

CMV (Davis) = assay: as above; assay type: cell-based, cytomegalovirus; conditions: for IC50: Human betaherpesvirus 5, read-out: Activity: inhibitory concentration required to reduce virus plaque formation by 50% (IC50), HEL cells, virus input 20 PFU; for Selectivity index: HEL
Method: as §1

VZV and CMV = assay: Potency against VZV and CMV; assay type: cell-based
Method: as §1

[4] = Human alphaherpesvirus 3, read-out: Activity: inhibitory concentration required to reduce virus plaque formation by 50% (IC50), VZV (YS), HEL cells, virus input 20 PFU

SMILES	IC50 (HSV-1 (F)) [ng/mL]	IC50 (HSV-1 (KOS)) [ng/mL]	IC50 (HSV-1 (McIntyre)) [ng/mL]	IC50 (HSV-1 (TK−/TKf VMW1837)) [µg/mL]	IC50 (HSV-1 (TK−KOS ACVf)) [µg/mL]	IC50 (HSV-2 (196)) [µg/mL]	IC50 (HSV-2 (G)) [µg/mL]	IC50 (HSV-2 (Lyons)) [µg/mL]	IC50 (VZV (YS); [4]) [µg/mL]	IC50 (VZV (OKA)) [µg/mL]	IC50 (VZV (TK−07/1)) [µg/mL]	IC50 (VZV (TK−YS/R)) [µg/mL]	Minimum cytotoxic concentration causing a microscopically detectable alteration of cell morphology (HeLa)	Minimum cytotoxic concentration causing a microscopically detectable alteration of cell morphology (Vero)	Minimum cytotoxic concentration causing a microscopically detectable alteration of cell morphology ([1]; E8SM)	Cytotoxicity (concentration) (HEL [2]) [µg/mL]	Cytotoxic concentration required to reduce cell growth by 50% (HEL [3]) [µg/mL]	IC50 (CMV (AD 169)) [µg/mL]	IC50 (CMV (Davis)) [µg/mL]	also measured
Nc1nc2c(ncn2COCCO)c(=O)[nH]1 [Acyclovir, reference compound]	3 (≈ 0.0133 µM)	10 (≈ 0.0444 µM)	5 (≈ 0.0222 µM)	0.07 (≈ 0.311 µM)	9.6 (≈ 42.6 µM)	0.02 (≈ 0.0888 µM)	0.02 (≈ 0.0888 µM)	0.02 (≈ 0.0888 µM)	1.1 (≈ 4.88 µM)											
O=c1[nH]c(=O)n([C@H]2C[C@H](O)[C@@H](CO)O2)cc1/C=C/Br [Brivudin, reference compound]	1 (≈ 0.003 µM)	1 (≈ 0.003 µM)	1 (≈ 0.003 µM)	> 80	> 80	> 80	> 80	> 80		0.003 (≈ 0.00901 µM)	> 20	> 50	≧400 μg/ml	≧400 μg/ml	≧400 μg/ml	>200	>50			IC50 (VZV (YS); Human alphaherpesvirus 3, HEL, read-out: Activity: inhibitory concentration required to reduce virus plaque formation by 50% (IC50)): 0.03 µg/mL (≈ 0.0901 µM)
Nc1ccn(C[C@@H](CO)OCP(=O)(O)O)c(=O)n1 [Cidolovir, reference compound]																>50	>50	0.08 (≈ 0.287 µM)	0.2 (≈ 0.716 µM)	
Nc1ncnc2c1ncn2[C@@H]1C=C[C@H](CO)[C@@H](O)C1 [Compound 36, 9-[(1S,4R,5S)-5-Hydroxy-4-hydroxymethyl-2-cyclohexenyl]adenine]																				melting point: 90 to 92 °C
Nc1nc2c(ncn2[C@@H]2C=C[C@H](CO)[C@@H](O)C2)c(=O)[nH]1 [D-cyclohexenyl G, 9-[(1S,4R,5S)-5-hydroxy-4-hydroxymethyl-2-cyclohexenyl]guanine]	2 (≈ 0.00721 µM)	2 (≈ 0.00721 µM)	4 (≈ 0.0144 µM)	0.01 (≈ 0.0361 µM)	0.38 (≈ 1.37 µM)	0.07 (≈ 0.252 µM)	0.05 (≈ 0.18 µM)	0.07 (≈ 0.252 µM)	0.49 (≈ 1.77 µM)	0.64 (≈ 2.31 µM)	2.1 (≈ 7.57 µM)	2.8 (≈ 10.1 µM)	400 μg/ml	400 μg/ml	>400 μg/ml	11	>20	0.6 (≈ 2.16 µM)	0.8 (≈ 2.89 µM)	Selectivity index (HSV-1 (F)): >2.10^5; Selectivity index (HSV-1 (KOS)): >2.10^5; Selectivity index (HSV-1 (McIntyre)): >1.10^5; Selectivity index (HSV-1 (TK−/TKf VMW1837)): >4.10^4; Selectivity index (HSV-1 (TK−KOS ACVf)): >1.10^3; Selectivity index (HSV-2 (196)): >5.10^3; Selectivity index (HSV-2 (G)): >8.10^3; Selectivity index (HSV-2 (Lyons)): >5.10^3; Selectivity index (VZV (YS); VZV (YS)): >40; Selectivity index (VZV (OKA)): >30; Selectivity index (VZV (TK−07/1)): >10; Selectivity index (VZV (TK−YS/R)): >7; Selectivity index (CMV (AD 169)): >30; Selectivity index (CMV (Davis)): >25; Toxicity in four different cell lines (HeLa, Vero, E6SM, HEL): did not show toxicity
Nc1nc(O)c2ncn(COC(CO)CO)c2n1 [Ganciclovir, reference compound]	1 (≈ 0.00392 µM)	1 (≈ 0.00392 µM)	1 (≈ 0.00392 µM)	0.01 (≈ 0.0392 µM)	0.48 (≈ 1.88 µM)	0.001 (≈ 0.00392 µM)	0.002 (≈ 0.00784 µM)	0.001 (≈ 0.00392 µM)								>50	>50	0.6 (≈ 2.35 µM)	0.8 (≈ 3.13 µM)	Minimum cytotoxic concentration causing a microscopically detectable alteration of cell morphology ([1]; human): >100 μg/ml
Nc1nc2c(ncn2[C@H]2C=C[C@@H](CO)[C@H](O)C2)c(=O)[nH]1 [L-cyclohexenyl G, 9-[(1R,4S,5R)-5-Hydroxy-4-hydroxymethyl-2-cyclohexenyl]guanine]	3 (≈ 0.0108 µM)	3 (≈ 0.0108 µM)	4 (≈ 0.0144 µM)	0.01 (≈ 0.0361 µM)	1.28 (≈ 4.62 µM)	0.1 (≈ 0.361 µM)	0.07 (≈ 0.252 µM)	0.07 (≈ 0.252 µM)	1.2 (≈ 4.33 µM)	1.9 (≈ 6.85 µM)	5.8 (≈ 20.9 µM)	6.8 (≈ 24.5 µM)	400 μg/ml	400 μg/ml	>18 μg/ml	>20	>20	1.5 (≈ 5.41 µM)	1.7 (≈ 6.13 µM)	Selectivity index (HSV-1 (F)): >5.10^3; Selectivity index (HSV-1 (KOS)): >5.10^3; Selectivity index (HSV-1 (McIntyre)): >4.10^3; Selectivity index (HSV-1 (TK−/TKf VMW1837)): >1.6 10^3; Selectivity index (HSV-1 (TK−KOS ACVf)): >12; Selectivity index (HSV-2 (196)): >1.6 10^2; Selectivity index (HSV-2 (G)): >2.2 10^2; Selectivity index (HSV-2 (Lyons)): >2.2 10^2; Selectivity index (VZV (YS); VZV (YS)): >16; Selectivity index (VZV (OKA)): >10; Selectivity index (VZV (TK−07/1)): >3; Selectivity index (VZV (TK−YS/R)): >3; Selectivity index (CMV (AD 169)): >13; Selectivity index (CMV (Davis)): >12; Potency relative to D-cyclohexene G (fold lower) (VZV and CMV): about 2 fold; melting point: 255 °C (dec.); Toxicity in four different cell lines (HeLa, Vero, E6SM, HEL): did not show toxicity
